Measured values: PubChem BioAssay (NCI)
Where “and” joins values, the source holds several entries; their conditions need not be identical. Equal entries are not always repeated.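 These data come from cells grown in 96-well plates and exposed to compound for 48 hours at five concentrations. At the GI50, growth is halved. TGI marks complete inhibition of growth.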

These compounds were tested on LOX IMVI melanoma (assay: growth of human tumour cells (NCI), 48 h).

| SMILES | GI50 | TGI |
| --- | --- | --- |
| CC(C)c1ccc(C(C)C(=O)N(CC2=C(C(C)c3ccccn3)c3ccccc3C2)C(C)C)cc1 (centres undefined) | 2.54 µM | 8.23 µM |
| Cc1nc2c(nc1C)C(=O)c1ccccc1C2=O |  | 7.11 µM |
| O=[N+]([O-])c1cnc(Sc2ccncn2)s1 | 2.65 µM | 6.7 µM |
| O=C(Nc1ccc(I)cc1)c1cc([N+](=O)[O-])ccc1O | 4.44 µM | 61 µM |
| Cc1cc(=O)n2[nH]c(-c3ccc(C(C)(C)C)cc3)cc2n1 | 7.39 µM | 61.6 µM |
| O=C(N/C(=C\c1cc(Cl)ccc1Cl)c1nc2[nH]c(=S)[nH]c(=O)c2[nH]1)c1ccccc1 |  | 91.6 µM |
| O=C(CN1CCN(c2cc3c(cc2F)c(=O)c(C(=O)N/N=C/c2ccccc2O)cn3C2CC2)CC1)N/N=C\c1ccccc1O | 0.232 µM | > 75.7 µM |
| C=C(CNCCO)[C@@H]1CC[C@]2(CO)CC[C@]3(C)[C@H](CC[C@@H]4[C@@]5(C)CCC(N)C(C)(C)[C@@H]5CC[C@]43C)[C@@H]12 (some centres undefined) | 1.7 µM | 3.2 µM |
| Nc1cc2nc3ccccc3sc-2cc1=O | 1.48 µM | 3.74 µM |
| CN(CC(=O)O)S(=O)(=O)c1ccc2ccccc2c1 |  | > 100 µM |
| CC1=C(C(=O)Nc2ccccc2C)C(c2ccco2)C(C(=O)Nc2ccccc2C)=C(C)N1C |  | > 100 µM |
| COc1cc2nc(-c3ccc(C(F)(F)F)cc3)cc(OCCCN3CCC(O)CC3)c2cc1OC | 0.19 µM | 0.447 µM |
| CC(=O)OC(C)C(=O)C1c2cccc(O)c2C(=O)c2c(O)cc(C)cc21 (centres undefined) |  | 1.82 µM |
| O=C1NNC(=O)c2ccccc2SSc2ccccc2C(=O)NNC(=O)c2ccccc2SSc2ccccc21 | 7.02 µM | 50 µM and > 100 µM |
| NC(CCc1nc(-c2ccc(Cl)cc2)cs1)C(=O)O (centres undefined) |  | > 100 µM |
| COc1cc(C(=O)/C=C/c2sc(Cl)nc2Cl)cc(OC)c1OC | 1.58 µM | 2.97 µM |
| COc1cc2nc(C)nc(N[C@H](C)c3cc(N)cc(C(F)(F)F)c3)c2cc1O[C@H]1CCOC1 | 12.2 µM | 28.1 µM |
| O=C1c2ccccc2C(=O)c2sc(Nc3cccc(Cl)c3)nc21 |  | 2.28 µM |
| CC1=C(C(=O)Nc2ccc(F)c(Cl)c2)C(c2ccc(Cl)cc2)NC(=O)N1 (centres undefined) | 16.6 µM | 32 µM |
| Fc1ccc(Nc2ncnc3ccc(-c4cnc5[nH]ccc5c4)cc23)cc1Cl | 3.95 µM | > 29.4 µM |
| CN(C)CCCNC1=C(Cl)C(=O)c2ccccc2C1=O | 1.61 µM | 3.17 µM |
| O=C(Nc1ccc(F)cc1F)c1cc(I)ccc1O | 3.31 µM | 17.6 µM |

Each compound was assayed on TK-10 renal (assay: growth of human tumour cells (NCI), 48 h).

| SMILES | GI50 | TGI |
| --- | --- | --- |
| C[C@@H](CS(C)(=O)=O)Nc1ncc2cc(Oc3ccc(F)cc3F)c(=O)n(C)c2n1 | > 25 µM | > 25 µM |
| COc1cc2c(c(OC)c1O)C(=O)C(OC)C(c1ccc(O)c(O)c1)O2 (centres undefined) | 40 µM | > 100 µM |
| Cn1ccnc1C(=O)/C=C/c1ccc(CC(=O)Nc2ccc(Br)cc2)cc1 | 6.21 µM | > 16.7 µM |
| CCOC(=O)Nc1nc2ccc(OCC)cc2s1 | > 100 µM | > 100 µM |
| NS(=O)(=O)c1ccccc1C(=O)N/N=C(\c1nc2ccc([N+](=O)[O-])cc2[nH]c1=O)C(O)c1ccc([N+](=O)[O-])cc1 (centres undefined) |  | > 100 µM |
| N#CC(C#N)=c1ccc(=C2NCC3CCCN23)cc1 (centres undefined) |  | > 100 µM |
| CC(C)c1ccc(C(C)C(=O)N(CC2=C(C(C)c3ccccn3)c3ccccc3C2)C(C)C)cc1 (centres undefined) | 4.81 µM | > 100 µM |
| Cc1nc2c(nc1C)C(=O)c1ccccc1C2=O |  | 79.5 µM |
| O=[N+]([O-])c1cnc(Sc2ccncn2)s1 | 2.14 µM | 4.22 µM |
| O=C(Nc1ccc(I)cc1)c1cc([N+](=O)[O-])ccc1O | 9.9 µM | > 100 µM |
| Cc1cc(=O)n2[nH]c(-c3ccc(C(C)(C)C)cc3)cc2n1 | 3.5 µM | 61.8 µM |
| O=C(N/C(=C\c1cc(Cl)ccc1Cl)c1nc2[nH]c(=S)[nH]c(=O)c2[nH]1)c1ccccc1 |  | > 100 µM |
| O=C(CN1CCN(c2cc3c(cc2F)c(=O)c(C(=O)N/N=C/c2ccccc2O)cn3C2CC2)CC1)N/N=C\c1ccccc1O | 0.77 µM | > 100 µM |
